In article PMC5940854, “Nitrothiophene carboxamides, a novel narrow spectrum antibacterial series: Mechanism of action and Efficacy” (Scientific Reports, 2018):
Residues, ends and D or L forms follow the SMILES beside them. *: point of attachment. βNA = c1ccc2cc(N*)ccc2c1

Key:
AcrB = target: T1, AcrB (Escherichia coli, UniProt P31224); assay: Thermal shift assay with CPM dye; set-up: species or system E. coli; conditions: AcrB vs apo-protein; > 1°C implies binding
T1 construct: Full length acrB gene was amplified from E. coli; BW25113; His-tag (C); made in house; host or cells: E. coli C43(DE3), plasmid pET21a
T1 sequence (P31224 whole entry): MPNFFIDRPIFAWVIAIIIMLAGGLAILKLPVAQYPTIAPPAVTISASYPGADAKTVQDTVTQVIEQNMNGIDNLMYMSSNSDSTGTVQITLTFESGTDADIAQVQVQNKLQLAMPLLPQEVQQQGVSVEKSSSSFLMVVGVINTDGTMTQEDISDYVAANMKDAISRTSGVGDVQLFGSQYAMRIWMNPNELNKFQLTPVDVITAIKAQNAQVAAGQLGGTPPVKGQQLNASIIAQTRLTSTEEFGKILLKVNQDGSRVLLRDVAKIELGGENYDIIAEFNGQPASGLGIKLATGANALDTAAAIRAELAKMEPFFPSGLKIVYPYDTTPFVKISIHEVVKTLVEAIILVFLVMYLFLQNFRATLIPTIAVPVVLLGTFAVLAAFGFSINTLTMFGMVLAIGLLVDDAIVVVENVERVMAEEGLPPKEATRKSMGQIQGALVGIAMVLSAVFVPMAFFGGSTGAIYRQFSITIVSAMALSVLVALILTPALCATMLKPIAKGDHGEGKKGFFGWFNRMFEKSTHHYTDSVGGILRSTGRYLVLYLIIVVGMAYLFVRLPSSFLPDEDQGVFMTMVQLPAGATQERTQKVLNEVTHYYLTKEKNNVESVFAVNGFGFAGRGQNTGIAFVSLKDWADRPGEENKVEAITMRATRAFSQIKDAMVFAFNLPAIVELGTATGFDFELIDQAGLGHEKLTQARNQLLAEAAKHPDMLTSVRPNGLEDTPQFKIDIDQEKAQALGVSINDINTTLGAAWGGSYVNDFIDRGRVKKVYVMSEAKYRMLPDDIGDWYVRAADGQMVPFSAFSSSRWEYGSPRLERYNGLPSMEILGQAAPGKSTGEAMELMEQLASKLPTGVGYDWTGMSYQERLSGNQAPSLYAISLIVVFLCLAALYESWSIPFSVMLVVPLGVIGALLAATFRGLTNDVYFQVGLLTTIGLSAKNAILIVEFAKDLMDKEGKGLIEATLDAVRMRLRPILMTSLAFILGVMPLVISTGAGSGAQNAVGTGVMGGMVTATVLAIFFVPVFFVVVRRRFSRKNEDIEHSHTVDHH
Method: AcrB overexpression protocol is adopted from Du. et al.[31]. Full length acrB gene was amplified from E. coli. BW25113 using Forward Primer 5′-[…]-3′ Reverse Primer 5′-[…]-3′ and cloned into the plasmid pET21a. The resultant plasmid that would express AcrB with a C-terminal His-tag is transformed into E. coli strain C43(DE3). The cells are induced on reaching A600 = 0.6 and transferred to 18 °C. The culture is harvested by centrifugation and re-suspended in Buffer A (100 mM Sodium Phosphate, 100 mM NaCl, 10 mM Imidazole, pH = 7.4, 100 µg/ml protease inhibitor cocktail from Roche and 5 U/ml DNase I and 5 mg/ml lysozyme). The cells are lysed at 15000 psi using Emulsiflex and centrifuged at 8000 g for removing cell debris. The membrane is isolated by centrifuging the resultant supernatant at 125000 g (see Coomassie stained SDS-PAGE of the purified protein Figure S9). Membrane solubilisation is done using Buffer A and 1.5% DDM (n-Dodecyl-β-D-Maltoside). Ni-NTA chromatography is used to purify the His-tagged protein and eluted in Buffer A with 300 mM Imidazole and 1.5% DDM.
The assay is performed according to protocols established elsewhere. CPM (N- [4-(7-diethylamino-4-methyl-3-coumarinyl) phenyl] maleimide) is a thiol specific fluorochrome (Excitation 387 nm, Emission 463 nm) and is non-fluorescent in an unbound state. The proteins, on thermal unfolding exposes cysteines allowing the CPM to bind and fluoresce. […]. The thermal denaturation is performed in a fluorimeter that is heated from 25 to 90 °C at a ramp rate of 1 °C/min. The Tm is calculated by analysing the melting profiles using Boltzmann Sigmoid function (GraphPad Prism) and ∆Tm is calculated by measuring the difference between the Tm of inhibitor bound protein and the apo-protein.

[1] = target: T2, AcrB efflux pump in E. coli BW25113 (Escherichia coli, UniProt P31224); assay: Nile red efflux assay (whole-cell competition); format: cell-based
T2 construct: endogenous in cells; host or cells: E. coli BW25113 (wild type)
T2 sequence (P0AE06 25-397): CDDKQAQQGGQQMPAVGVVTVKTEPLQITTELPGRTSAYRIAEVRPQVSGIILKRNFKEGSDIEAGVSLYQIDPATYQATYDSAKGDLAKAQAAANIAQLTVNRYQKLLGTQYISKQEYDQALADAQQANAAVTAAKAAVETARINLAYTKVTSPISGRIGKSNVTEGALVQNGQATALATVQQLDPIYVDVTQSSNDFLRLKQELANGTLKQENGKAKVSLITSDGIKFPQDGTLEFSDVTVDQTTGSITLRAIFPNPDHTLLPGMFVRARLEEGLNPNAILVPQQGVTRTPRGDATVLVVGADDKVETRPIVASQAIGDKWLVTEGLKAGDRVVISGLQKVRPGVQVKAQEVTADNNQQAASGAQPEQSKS
T2 sequence (P31224 whole entry): as the sequence (P31224 whole entry) above
T2 sequence (P02930 23-493, further chain): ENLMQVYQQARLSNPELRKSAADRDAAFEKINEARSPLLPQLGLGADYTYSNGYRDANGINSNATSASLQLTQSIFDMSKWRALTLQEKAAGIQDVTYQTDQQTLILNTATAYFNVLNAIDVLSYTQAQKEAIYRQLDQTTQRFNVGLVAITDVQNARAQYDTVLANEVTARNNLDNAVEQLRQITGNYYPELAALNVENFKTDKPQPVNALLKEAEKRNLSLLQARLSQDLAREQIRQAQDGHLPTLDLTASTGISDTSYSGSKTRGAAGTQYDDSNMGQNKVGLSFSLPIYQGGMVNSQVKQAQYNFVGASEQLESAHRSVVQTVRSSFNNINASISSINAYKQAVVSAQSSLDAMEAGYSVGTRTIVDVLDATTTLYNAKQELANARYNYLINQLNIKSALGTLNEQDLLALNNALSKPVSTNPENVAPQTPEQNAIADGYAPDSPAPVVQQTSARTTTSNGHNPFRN
Method: The Nile red assay is adopted from Bohnert et al.[18]. An overnight culture of E. coli strain BW25113 is harvested and is resuspended in 20 mM potassium phosphate buffer (pH 7.0) containing 1 mM MgCl2 (PPB). The cells are adjusted to an A660 of 1.0 in PPB and aliquoted into glass tubes (2 ml each). Carbonylcyanide-m-chlorophenylhydrazone (CCCP; a protonophore that uncouples the electron transport chain and thus inhibits AcrB mediated efflux) is added to a final concentration of 10 µM (5 mM stock solution in 50% DMSO) and incubated for 15 minutes before adding the potential competitor at desired concentrations. Nile red is then added (stock solution of 5 mM in 10% dimethyl formamide-90% ethanol [vol/vol]) to a final concentration of 5 µM. The cell suspension is incubated at room temperature on a shaker for 3 hours. The cells are harvested and resuspended in 2 ml PPB in the presence of the competitor. The cell suspension is aliquoted in a fluorimeter cuvette, to which, 100 µl of 1 M Glucose is added to activate the electron transport chain. The rate of efflux is measured by Tefflux50, it is the time taken for 50% of Nile red to be effluxed out in presence of the compounds. The fluorescence is measured (Excitation 552 nm, Emission 636 nm) for 200 seconds.

E. coli ∆acrB JW0451-2 = assay: Neutropenic thigh infection, E. coli ∆acrB; format: in vivo, BALB/c mice
E. coli BW25113 = assay: Neutropenic thigh infection, E. coli BW25113; format: in vivo, BALB/c mice; conditions: Study TI-2014-008, BW25113, 100mg/kg per oral

| SMILES | ∆Tm (AcrB) [°C] | Tefflux50 ([1]; 1µM compound, time for 50% of Nile red to be effluxed, read for 200 seconds) [s] | Tefflux50 ([1]; 9µM compound) [s] | Tefflux50 ([1]; 27µM compound) [s] | Tefflux50 ([1]; 81µM compound) [s] | Tefflux50 ([1]; 100µM compound) [s] | Tefflux50 ([1]; 200µM compound) [s] | Tefflux50 ([1]; 400µM compound) [s] | Log10CFU Mean Diff. vs. Untreated Controls (E. coli ∆acrB JW0451-2; Study TI-2014-007, ∆acrB JW0451-2, 100mg/kg per oral, 6 hours post treatment) [Log10CFU] | Log10CFU Mean Diff. vs. Untreated Controls (E. coli ∆acrB JW0451-2; Study TI-2014-008, ∆acrB JW0451-2, 100mg/kg per oral) [Log10CFU] | Log10CFU Mean Diff. vs. Untreated Controls (E. coli BW25113) [Log10CFU] |
| --- | --- | --- | --- | --- | --- | --- | --- | --- | --- | --- | --- |
| NC(N)=NCCC[C@H](NC(=O)[C@@H](N)Cc1ccccc1)C(=O)Nc1ccc2ccccc2c1 [PAβN, Phenylalanine-Arginine Beta-Naphthylamide, reference compound] (H-Phe-Arg-βNA) | 3.84 | 200 | 200 | 200 | 200 | 200 | 200 | 200 | – | – | – |
| O=C(O)c1cn(C2CC2)c2cc(N3CCNCC3)c(F)cc2c1=O [ciprofloxacin, reference compound] | – | – | – | – | – | – | – | – | 3.477 | 3.098 | 3.212 |
